Measured values reported in ChEMBL document CHEMBL3352005, “Synthesis of a novel universal opioid receptor agonist with the 1,3,5-trioxazatriquinane skeleton and its pharmacologies” (Bioorg Med Chem Lett, 2014).

Experiments:
Mu-type opioid receptor [1] = biological target: Mu-type opioid receptor (Mus musculus, UniProt P42866); assay: Displacement of [3H]DAMGO from mouse whole brain MOR
[2] = biological target: Delta-type opioid receptor (Mus musculus, UniProt P32300); assay: Displacement of [3H]DPDPE from mouse whole brain DOR
[3] = biological target: Kappa-type opioid receptor (Cavia porcellus, UniProt P41144); assay: Displacement of [3H]U-69593 from guinea pig cerebellum KOR
Mu-type opioid receptor [4] = biological target: T1, Mu-type opioid receptor (Homo sapiens, UniProt P35372); assay: Agonist activity at human MOR expressed in CHO cells by [35S]GTPgammaS binding assay; type: functional, cell-based
Mu-type opioid receptor [5] = biological target: T1, Mu-type opioid receptor; assay: Agonist activity at human MOR expressed in CHO cells by [35S]GTPgammaS binding assay relative to DAMGO; type: functional, cell-based
[6] = biological target: T2, Delta-type opioid receptor (Homo sapiens, UniProt P41143); assay: Agonist activity at human DOR expressed in CHO cells by [35S]GTPgammaS binding assay; type: functional, cell-based
[7] = biological target: T2, Delta-type opioid receptor; assay: Agonist activity at human DOR expressed in CHO cells by [35S]GTPgammaS binding assay relative to DPDPE; type: functional, cell-based
[8] = biological target: T3, Kappa-type opioid receptor (Homo sapiens, UniProt P41145); assay: Agonist activity at human KOR expressed in CHO cells by [35S]GTPgammaS binding assay; type: functional, cell-based
[9] = biological target: T3, Kappa-type opioid receptor; assay: Agonist activity at human KOR expressed in CHO cells by [35S]GTPgammaS binding assay relative to U-69593; type: functional, cell-based

Sequence of Kappa-type opioid receptor (Cavia porcellus, UniProt P41144) (P41144 whole entry): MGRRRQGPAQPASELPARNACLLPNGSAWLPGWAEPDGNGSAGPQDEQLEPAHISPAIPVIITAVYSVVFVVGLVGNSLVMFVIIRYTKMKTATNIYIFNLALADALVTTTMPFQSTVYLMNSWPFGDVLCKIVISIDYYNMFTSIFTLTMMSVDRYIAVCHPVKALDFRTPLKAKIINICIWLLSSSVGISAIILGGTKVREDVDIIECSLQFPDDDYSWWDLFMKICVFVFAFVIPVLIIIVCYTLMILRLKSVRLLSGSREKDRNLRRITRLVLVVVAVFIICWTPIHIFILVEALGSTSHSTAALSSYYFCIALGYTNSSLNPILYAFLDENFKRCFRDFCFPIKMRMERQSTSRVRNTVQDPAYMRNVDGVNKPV
Sequence of Delta-type opioid receptor (Mus musculus, UniProt P32300) (P32300 whole entry): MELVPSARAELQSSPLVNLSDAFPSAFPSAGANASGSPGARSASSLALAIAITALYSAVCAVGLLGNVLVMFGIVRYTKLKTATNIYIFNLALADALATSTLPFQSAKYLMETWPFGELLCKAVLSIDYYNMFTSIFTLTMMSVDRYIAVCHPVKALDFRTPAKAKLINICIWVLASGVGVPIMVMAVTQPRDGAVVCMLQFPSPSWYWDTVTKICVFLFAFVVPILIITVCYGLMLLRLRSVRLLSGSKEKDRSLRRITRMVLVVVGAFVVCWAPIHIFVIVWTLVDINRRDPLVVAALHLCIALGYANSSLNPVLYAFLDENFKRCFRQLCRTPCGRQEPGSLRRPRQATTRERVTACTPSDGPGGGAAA
Sequence of Mu-type opioid receptor (Mus musculus, UniProt P42866) (P42866 whole entry): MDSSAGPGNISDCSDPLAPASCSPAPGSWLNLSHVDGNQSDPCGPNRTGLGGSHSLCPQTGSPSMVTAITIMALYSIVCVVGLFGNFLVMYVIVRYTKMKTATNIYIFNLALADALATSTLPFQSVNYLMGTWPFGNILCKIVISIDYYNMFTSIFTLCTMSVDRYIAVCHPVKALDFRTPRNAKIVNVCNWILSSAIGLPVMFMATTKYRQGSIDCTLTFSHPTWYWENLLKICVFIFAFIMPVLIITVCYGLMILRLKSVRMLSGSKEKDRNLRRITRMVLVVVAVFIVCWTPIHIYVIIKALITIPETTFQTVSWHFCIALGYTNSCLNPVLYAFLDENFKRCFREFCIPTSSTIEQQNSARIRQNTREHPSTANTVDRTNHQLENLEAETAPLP
T3 sequence (P41145 whole entry): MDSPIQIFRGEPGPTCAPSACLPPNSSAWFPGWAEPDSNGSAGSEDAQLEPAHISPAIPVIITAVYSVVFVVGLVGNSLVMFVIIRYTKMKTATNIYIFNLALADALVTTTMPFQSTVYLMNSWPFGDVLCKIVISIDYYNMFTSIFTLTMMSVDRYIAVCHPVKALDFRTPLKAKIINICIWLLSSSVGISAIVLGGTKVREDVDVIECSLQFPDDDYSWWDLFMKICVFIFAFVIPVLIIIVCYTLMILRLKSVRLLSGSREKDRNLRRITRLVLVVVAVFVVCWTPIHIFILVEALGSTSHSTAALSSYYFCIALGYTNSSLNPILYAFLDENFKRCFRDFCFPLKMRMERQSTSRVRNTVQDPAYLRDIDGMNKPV
T1 sequence (P35372 whole entry): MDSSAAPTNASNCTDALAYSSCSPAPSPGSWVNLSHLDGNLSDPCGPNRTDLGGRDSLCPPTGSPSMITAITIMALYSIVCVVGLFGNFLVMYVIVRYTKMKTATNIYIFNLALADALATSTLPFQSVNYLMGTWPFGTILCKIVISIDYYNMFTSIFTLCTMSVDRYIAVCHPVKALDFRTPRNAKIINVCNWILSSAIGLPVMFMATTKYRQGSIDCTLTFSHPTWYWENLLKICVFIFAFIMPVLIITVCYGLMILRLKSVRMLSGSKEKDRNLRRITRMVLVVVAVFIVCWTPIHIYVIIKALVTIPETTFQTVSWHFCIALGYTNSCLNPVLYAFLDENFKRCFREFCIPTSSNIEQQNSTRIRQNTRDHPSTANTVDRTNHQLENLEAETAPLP
T2 sequence (P41143 whole entry): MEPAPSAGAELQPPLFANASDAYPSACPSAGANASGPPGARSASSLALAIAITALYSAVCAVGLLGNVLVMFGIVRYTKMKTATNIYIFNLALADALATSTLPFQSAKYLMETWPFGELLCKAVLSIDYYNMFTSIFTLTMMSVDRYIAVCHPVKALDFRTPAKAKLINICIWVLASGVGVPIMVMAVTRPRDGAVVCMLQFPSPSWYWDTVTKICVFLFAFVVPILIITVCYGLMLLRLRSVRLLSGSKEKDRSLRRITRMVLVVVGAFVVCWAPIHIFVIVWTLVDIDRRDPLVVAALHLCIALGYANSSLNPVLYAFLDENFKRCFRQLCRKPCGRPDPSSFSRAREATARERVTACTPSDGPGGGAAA

| SMILES | Ki (Mu-type opioid receptor [1]) | Ki [2] | Ki [3] | EC50 (Mu-type opioid receptor [4]) | Emax (Mu-type opioid receptor [5]) | EC50 [6] | Emax [7] | EC50 [8] | Emax [9] |
| --- | --- | --- | --- | --- | --- | --- | --- | --- | --- |
| C[C@@]1(c2ccc(O)cc2)O[C@H]2CO[C@@H]3N2[C@H]1O[C@@]3(C)c1ccc(O)cc1 | > 1000 nM | > 1000 nM | > 1000 nM | – | – | – | – | – | – |
| C[C@@]1(c2ccc(O)cc2)O[C@@H]2N3[C@H]1O[C@](C)(c1ccc(O)cc1)[C@@H]3O[C@]2(C)c1ccc(O)cc1 | > 1000 nM | > 1000 nM | > 1000 nM | – | – | – | – | – | – |
| C[C@]1(c2ccc(O)cc2)O[C@H]2CO[C@@H]3N2[C@H]1O[C@]3(C)c1ccc(O)cc1 | > 1000 nM | > 1000 nM | > 1000 nM | – | – | – | – | – | – |
| C[C@]1(c2ccc(O)cc2)O[C@H]2CO[C@H]3CO[C@@H]1N32 | > 1000 nM | > 1000 nM | > 1000 nM | – | – | – | – | – | – |
| C[C@@]1(c2ccccc2O)O[C@H]2CO[C@@H]3N2[C@H]1O[C@@]3(C)c1ccccc1O | > 1000 nM | > 1000 nM | > 1000 nM | – | – | – | – | – | – |
| C[C@@]1(c2ccccc2O)O[C@@H]2N3[C@H]1O[C@](C)(c1ccccc1O)[C@@H]3O[C@@]2(C)c1ccccc1O | > 1000 nM | > 1000 nM | > 1000 nM | – | – | – | – | – | – |
| C[C@@]1(c2ccc(O)cc2)O[C@H]2CO[C@@H]3N2[C@H]1O[C@]3(C)c1ccc(O)cc1 | > 1000 nM | > 1000 nM | > 1000 nM | – | – | – | – | – | – |
| C[C@@]1(c2ccccc2O)O[C@H]2CO[C@H]3CO[C@@H]1N32 | > 1000 nM | > 1000 nM | > 1000 nM | – | – | – | – | – | – |
| C[C@@]1(c2ccc(O)cc2)O[C@@H]2N3[C@H]1O[C@@](C)(c1ccc(O)cc1)[C@@H]3O[C@@]2(C)c1ccc(O)cc1 | > 1000 nM | > 1000 nM | > 1000 nM | – | – | – | – | – | – |
| C[C@@]1(c2ccccc2O)O[C@H]2CO[C@@H]3N2[C@H]1O[C@]3(C)c1ccccc1O | > 1000 nM | > 1000 nM | > 1000 nM | – | – | – | – | – | – |
| C[C@@]1(c2ccc(O)cc2)O[C@@H]2N3[C@H]1O[C@](C)(c1ccc(O)cc1)[C@@H]3O[C@@]2(C)c1ccc(O)cc1 | > 1000 nM | > 1000 nM | > 1000 nM | – | – | – | – | – | – |
| C[C@]1(c2ccccc2O)O[C@H]2CO[C@@H]3N2[C@H]1O[C@]3(C)c1ccccc1O | > 1000 nM | > 1000 nM | > 1000 nM | – | – | – | – | – | – |
| C[C@@]1(c2ccccc2O)O[C@@H]2N3[C@H](CO[C@H]31)O[C@]2(C)c1ccccc1O | 20.5 nM | 88.8 nM | 9.17 nM | 57.6 nM | 89.2% | 52.7 nM | 73.6% | 9.95 nM | 131% |
| C[C@]1(c2ccccc2O)O[C@H]2CO[C@H]3CO[C@@H]1N32 | > 1000 nM | > 1000 nM | > 1000 nM | – | – | – | – | – | – |
| C[C@@]1(c2ccc(O)cc2)O[C@H]2CO[C@H]3CO[C@@H]1N32 | > 1000 nM | > 1000 nM | > 1000 nM | – | – | – | – | – | – |
| C[C@@]1(c2ccc(O)cc2)O[C@@H]2N3[C@H](CO[C@H]31)O[C@]2(C)c1ccc(O)cc1 | > 1000 nM | > 1000 nM | > 1000 nM | – | – | – | – | – | – |
| C[C@@]1(c2ccccc2O)O[C@@H]2N3[C@H]1O[C@](C)(c1ccccc1O)[C@@H]3O[C@]2(C)c1ccccc1O | > 1000 nM | > 1000 nM | > 1000 nM | – | – | – | – | – | – |
| C[C@@]1(c2ccccc2O)O[C@@H]2N3[C@H]1O[C@@](C)(c1ccccc1O)[C@@H]3O[C@@]2(C)c1ccccc1O | > 1000 nM | > 1000 nM | > 1000 nM | – | – | – | – | – | – |
